Results taken from paper PMC11369081, “Molecular mechanism of prolactin-releasing peptide recognition and signaling via its G protein-coupled receptor” (Cell Discovery, 2024).
Peptide text beside a SMILES is read from it.

Columns and labels:
Type in all cases: cell-based
[1] = biological target: T1, PrRPR P142A (Homo sapiens, UniProt P49683, P142A); assay: BRET2 Gq dissociation, P142A; details: P142A (3.33), Gq-coupling, AD293 cells; mean ± S.E.M., n = 3; P <0.0001 vs WT; read-out: BRET2 pEC50 (converted)
T1 construct: expressed in transfected cells; host or cells: AD293 cells
Protocol: (§1) AD293 cells (Agilent) were propagated in Dulbecco’s Modified Eagle Medium (DMEM, Thermo Fisher Scientific), enriched with 10% fetal bovine serum (FBS, Thermo Fisher Scientific), and maintained at 37 °C in a 5% CO2 environment. Cells were then seeded in 6-well dishes at a density of 130,000–150,000 cells per mL and allowed to incubate overnight. On the next day, cells were transfected with plasmids at a 1:1:1:1 ratio for receptor:Gα-RLuc8:Gβ:Gγ-GFP2[52]. PEI MAX 40 K (BIOHUB) was utilized to form complex with the plasmids at a ratio of 3 µL PEI per µg of plasmids, in OptiMEM (Gibco-Thermo Fisher Scientific) at a concentration of 10 ng plasmids per µL OptiMEM. After 24 h of incubation, the culture was harvested by centrifugation with PBS. The cell suspension was then allocated into a white 384-well plate at a volume of 30 µL per well, followed by the addition of 10 µL of freshly prepared 50 µM coelenterazine 400a (Yeasen). […] Plates were subsequently read in a BioTek Synergy H1 microplate reader (BioTek) equipped with 395 nm (RLuc8-coelenterazine 400a) and 510 nm (GFP2) emission filters. BRET2 ratios were calculated as the ratio of the GFP2 emission to RLuc8 emission. […]
(§2) Supplementary Fig. S4 | Effects of mutations in the ligand-binding pocket and G protein intereface of Gq coupled PrRPR by BRET2 assay. […] BRET2 assay signals were measured after stimulation with PrRP20. […]

[2] = biological target: T2, PrRPR V208A (Homo sapiens, UniProt P49683, V208A); assay: BRET2 Gq dissociation, V208A; details: V208A (ECL2), Gq-coupling, AD293 cells; mean ± S.E.M., n = 3; P 0.0347 vs WT; read-out: BRET2 pEC50 (converted)
T2 construct: expressed in transfected cells; host or cells: AD293 cells
Protocol: as §1, §2

[3] = biological target: T3, PrRPR L229A (Homo sapiens, UniProt P49683, L229A); assay: BRET2 Gq dissociation, L229A; details: L229A (5.42), Gq-coupling, AD293 cells; mean ± S.E.M., n = 3; P <0.0001 vs WT; read-out: BRET2 pEC50 (converted)
T3 construct: Flag; expressed in transfected cells; host or cells: AD293 cells
Protocol: as §1, §2

[4] = biological target: T4, PrRPR T117A (Homo sapiens, UniProt P49683, T117A); assay: BRET2 Gi dissociation, T117A; details: T117A (2.61), Gi-coupling, AD293 cells; mean ± S.E.M., n = 3; P <0.0001 vs WT; read-out: BRET2 pEC50 (converted)
T4 construct: expressed in transfected cells; host or cells: AD293 cells
Protocol: (§3) AD293 cells (Agilent) were propagated in Dulbecco’s Modified Eagle Medium (DMEM, Thermo Fisher Scientific), enriched with 10% fetal bovine serum (FBS, Thermo Fisher Scientific), and maintained at 37 °C in a 5% CO2 environment. Cells were then seeded in 6-well dishes at a density of 130,000–150,000 cells per mL and allowed to incubate overnight. On the next day, cells were transfected with plasmids at a 1:1:1:1 ratio for receptor:Gα-RLuc8:Gβ:Gγ-GFP2[52]. PEI MAX 40 K (BIOHUB) was utilized to form complex with the plasmids at a ratio of 3 µL PEI per µg of plasmids, in OptiMEM (Gibco-Thermo Fisher Scientific) at a concentration of 10 ng plasmids per µL OptiMEM. After 24 h of incubation, the culture was harvested by centrifugation with PBS. The cell suspension was then allocated into a white 384-well plate at a volume of 30 µL per well, followed by the addition of 10 µL of freshly prepared 50 µM coelenterazine 400a (Yeasen). Following a 15-min equilibration period, cells were treated with 10 µL of ligand for an additional 5 min. Plates were subsequently read in a BioTek Synergy H1 microplate reader (BioTek) equipped with 395 nm (RLuc8-coelenterazine 400a) and 510 nm (GFP2) emission filters. BRET2 ratios were calculated as the ratio of the GFP2 emission to RLuc8 emission. Data were normalized to the baseline response of the ligand. […]

[5] = biological target: T5, PrRPR W127A (Homo sapiens, UniProt P49683, W127A); assay: BRET2 Gi dissociation, W127A; details: W127A (23.50), Gi-coupling, AD293 cells; mean ± S.E.M., n = 3; P <0.0001 vs WT; read-out: BRET2 pEC50 (converted)
T5 construct: expressed in transfected cells; host or cells: AD293 cells
Protocol: as §3

[6] = biological target: T6, PrRPR Q141A (Homo sapiens, UniProt P49683, Q141A); assay: BRET2 Gi dissociation, Q141A; details: Q141A (3.32), Gi-coupling, AD293 cells; mean ± S.E.M., n = 3; P 0.0002 vs WT; read-out: BRET2 pEC50 (converted)
T6 construct: expressed in transfected cells; host or cells: AD293 cells
Protocol: as §3

[7] = biological target: T7, PrRPR E212A (Homo sapiens, UniProt P49683, E212A); assay: BRET2 Gi dissociation, E212A; details: E212A (45.51), Gi-coupling, AD293 cells; mean ± S.E.M., n = 3; P <0.0001 vs WT; read-out: BRET2 pEC50 (converted)
T7 construct: expressed in transfected cells; host or cells: AD293 cells
Protocol: as §3

[8] = biological target: T8, PrRPR E213A (Homo sapiens, UniProt P49683, E213A); assay: BRET2 Gi dissociation, E213A; details: E213A (45.52), Gi-coupling, AD293 cells; mean ± S.E.M., n = 3; P <0.0001 vs WT; read-out: BRET2 pEC50 (converted)
T8 construct: expressed in transfected cells; host or cells: AD293 cells
Protocol: as §3

[9] = biological target: T9, PrRPR Q317A (Homo sapiens, UniProt P49683, Q317A); assay: BRET2 Gi dissociation, Q317A; details: Q317A (7.35), Gi-coupling, AD293 cells; mean ± S.E.M., n = 3; P <0.0001 vs WT; read-out: BRET2 pEC50 (converted)
T9 construct: Flag; expressed in transfected cells; host or cells: AD293 cells
Protocol: as §3

T4 sequence (P49683 whole entry T117A): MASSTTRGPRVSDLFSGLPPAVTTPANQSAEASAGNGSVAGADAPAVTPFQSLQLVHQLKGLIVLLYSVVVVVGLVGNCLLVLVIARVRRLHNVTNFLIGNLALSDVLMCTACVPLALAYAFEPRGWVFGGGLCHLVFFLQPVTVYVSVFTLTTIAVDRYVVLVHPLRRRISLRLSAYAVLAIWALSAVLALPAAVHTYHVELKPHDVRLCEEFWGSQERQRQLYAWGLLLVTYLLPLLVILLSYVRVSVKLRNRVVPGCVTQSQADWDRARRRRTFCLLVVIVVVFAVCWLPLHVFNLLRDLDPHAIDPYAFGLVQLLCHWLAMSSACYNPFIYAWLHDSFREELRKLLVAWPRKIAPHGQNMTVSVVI
T8 sequence (P49683 whole entry E213A): as the sequence (P49683 whole entry T117A) above, with A117T, E213A counted along it
T9 sequence (P49683 whole entry Q317A): as the sequence (P49683 whole entry T117A) above, with A117T, Q317A counted along it
T5 sequence (P49683 whole entry W127A): as the sequence (P49683 whole entry T117A) above, with A117T, W127A counted along it
T7 sequence (P49683 whole entry E212A): as the sequence (P49683 whole entry T117A) above, with A117T, E212A counted along it
T3 sequence (P49683 whole entry L229A): as the sequence (P49683 whole entry T117A) above, with A117T, L229A counted along it
T2 sequence (P49683 whole entry V208A): as the sequence (P49683 whole entry T117A) above, with A117T, V208A counted along it
T6 sequence (P49683 whole entry Q141A): as the sequence (P49683 whole entry T117A) above, with A117T, Q141A counted along it
T1 sequence (P49683 whole entry P142A): as the sequence (P49683 whole entry T117A) above, with A117T, P142A counted along it

SMILES: CC[C@H](C)[C@H](NC(=O)CNC(=O)[C@H](CCCNC(=N)N)NC(=O)[C@H](CO)NC(=O)[C@H](C)NC(=O)[C@H](Cc1ccc(O)cc1)NC(=O)[C@H](Cc1c[nH]c2ccccc12)NC(=O)[C@H](C)NC(=O)[C@@H]1CCCN1C(=O)[C@H](CC(N)=O)NC(=O)[C@@H](NC(=O)[C@H](CC(=O)O)NC(=O)[C@@H]1CCCN1C(=O)[C@@H](N)[C@@H](C)O)[C@@H](C)CC)C(=O)N[C@@H](CCCNC(=N)N)C(=O)N1CCC[C@H]1C(=O)N[C@H](C(=O)NCC(=O)N[C@@H](CCCNC(=N)N)C(=O)N[C@@H](Cc1ccccc1)C(N)=O)C(C)C [PrRP20] (H-TPDINPAWYASRGIRPVGRF-NH2)
- EC50 [1]: 4.79 nM
- EC50 [2]: 2.45 nM
- EC50 [3]: 20.4 nM
- EC50 [4]: 3470 nM
- EC50 [5]: 490 nM
- EC50 [6]: 7.59 nM
- EC50 [7]: 398 nM
- EC50 [8]: 1380 nM
- EC50 [9]: 4170 nM
